{"source": "paper PMC5344293", "about": "“A phase 1 dose-escalation and expansion study of binimetinib (MEK162), a potent and selective oral MEK1/2 inhibitor” (British Journal of Cancer, 2017)", "origin": "cited, not measured here", "key": {"non-melanoma tumours [1]": {"test_system": "non-melanoma tumours", "design": "method as in Delord et al, 2010", "settings": "ref Delord et al, 2010; cited from earlier work"}, "[2]": {"test_system": "metastatic biliary cancer", "design": "method as in Bekaii-Saab et al, 2011", "settings": "ref Bekaii-Saab et al, 2011; cited from earlier work"}, "non-melanoma tumours [3]": {"test_system": "non-melanoma tumours", "design": "method as in Adjei et al, 2008", "settings": "ref Adjei et al, 2008; cited from earlier work"}, "advanced solid tumours": {"test_system": "advanced solid tumours", "design": "method as in Infante et al, 2012", "settings": "ref Infante et al, 2012, cited from earlier work"}, "non-melanoma tumours [4]": {"test_system": "non-melanoma tumours", "design": "method as in Rosen et al, 2011", "settings": "ref Rosen et al, 2011; cited from earlier work"}}, "note": "Like-named read-outs stand apart in the source and are kept apart here."}
{"smiles": "O=C(NC[C@H](O)CO)c1ccncc1Nc1ccc(I)cc1F", "note": "[pimasertib]", "values": [{"measurement": "Objective responses to single-agent treatment in non-melanoma patients", "setting": "non-melanoma tumours [1]", "result": "no objective responses"}]}
{"smiles": "Cn1cnc2c(F)c(Nc3ccc(Br)cc3Cl)c(C(=O)NOCCO)cc21", "note": "[selumetinib]", "values": [{"measurement": "Objective response, patients", "setting": "[2]", "result": 12, "unit": "%"}, {"measurement": "Objective responses to single-agent treatment in non-melanoma patients", "setting": "non-melanoma tumours [3]", "result": "no objective responses"}]}
{"smiles": "CC(=O)Nc1cccc(-n2c(=O)n(C3CC3)c(=O)c3c(Nc4ccc(I)cc4F)n(C)c(=O)c(C)c32)c1", "note": "[trametinib]", "values": [{"measurement": "Non-melanoma patients with objective responses", "setting": "advanced solid tumours; NSCLC and pancreas cancer (2 patients each)", "result": 4, "unit": "patients"}, {"measurement": "Patients with objective responses", "setting": "advanced solid tumours; all tumour types", "result": 21, "unit": "patients"}]}
{"smiles": "O=C(c1ccc(F)c(F)c1Nc1ccc(I)cc1F)N1CC(O)([C@@H]2CCCCN2)C1", "note": "[cobimetinib]", "values": [{"measurement": "Objective responses to single-agent treatment in non-melanoma patients", "setting": "non-melanoma tumours [4]", "result": "no objective responses"}]}
